From the supplement of paper PMC10307832

How the values were obtained:
Assay in all cases: relative viability (nuclei count vs DMSO), 5 days (fraction); higher = more cells survive
Sulindac + Tozasertib = compound: CC1=C(CC(=O)O)c2cc(F)ccc2/C1=C\c1ccc([S+](C)[O-])cc1 [Sulindac] + Cc1cc(Nc2cc(N3CCN(C)CC3)nc(Sc3ccc(NC(=O)C4CC4)cc3)n2)n[nH]1 [Tozasertib] (partner 0.1 µM)
Summary of the method: (§1)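 Relative viability divides the nuclei count in treated wells by that in vehicle wells. Lung cancer cell lines were seeded in 1536-well plates, dosed by pin tool the next day, and fixed and stained after 5 days in one step with final 0.05% Triton X-100, 1% formaldehyde and 1 ug/ml Hoechst. Dosing was a single drug or a fixed anchor-drug dose plus five library-drug doses (not always all listed) in √10 steps, and values are medians of duplicate plates imaged at 4×.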

[1] = compound: O=c1[nH]cc(F)c(=O)[nH]1 [5-Fluorouracil] + CC(C)C[C@H](NC(=O)[C@H](Cc1ccccc1)NC(=O)c1cnccn1)B(O)O [Bortezomib] (partner 0.002 µM)
Summary of the method: as §1

[2] = compound: O=c1[nH]cc(F)c(=O)[nH]1 [5-Fluorouracil] + CS(=O)(=O)N1CCN(Cc2cc3nc(-c4cccc5[nH]ncc45)nc(N4CCOCC4)c3s2)CC1 [Pictilisib] (partner 1 µM)
Summary of the method: as §1

[3] = compound: O=c1[nH]cc(F)c(=O)[nH]1 [5-Fluorouracil] + O=C(c1cc(Cc2n[nH]c(=O)c3ccccc23)ccc1F)N1CCN(C(=O)C2CC2)CC1 [Olaparib] (partner 8 µM)
Summary of the method: as §1

Cell Line	relative viability (Sulindac + Tozasertib; first compound 0.08 µM)	relative viability (Sulindac + Tozasertib; first compound 0.253 µM)	relative viability (Sulindac + Tozasertib; first compound 2.53 µM)	relative viability (Sulindac + Tozasertib; first compound 8 µM)	relative viability ([1]; first compound 0.02 µM)	relative viability ([1]; first compound 0.2 µM)	relative viability ([1]; first compound 0.6325 µM)	relative viability ([1]; first compound 2 µM)	relative viability ([2]; first compound 0.02 µM)	relative viability ([2]; first compound 0.2 µM)	relative viability ([2]; first compound 0.6325 µM)	relative viability ([2]; first compound 2 µM)	relative viability ([3]; first compound 0.02 µM)	relative viability ([3]; first compound 0.2 µM)	relative viability ([3]; first compound 0.6325 µM)	relative viability ([3]; first compound 2 µM)	relative viability (Sulindac + Tozasertib; first compound 0.8 µM)
HCC-44	1.08	1.04	0.938	0.981	0.931	0.84	0.601	0.35	0.784	0.58	0.46	0.33	1.03	1.02	0.979	0.651	–
ChaGo-K-1	0.228	0.197	0.217	0.241	0.955	1.04	0.7	0.705	0.747	0.919	0.48	0.645	0.36	0.393	0.321	0.25	0.24
COR-L23	0.591	0.242	0.186	0.238	1.04	0.85	0.41	0.221	0.864	0.711	0.367	0.231	0.36	0.312	0.273	0.18	0.179
EMC-BAC-2	0.269	0.298	0.278	0.315	1.16	1.17	1.1	1.02	0.616	0.56	0.506	0.536	0.479	0.53	0.45	0.469	0.287
LCLC-103H	0.439	0.512	0.47	0.48	0.99	1.18	0.931	0.632	0.61	0.598	0.536	0.447	0.801	0.741	0.559	0.46	0.508
NCI-H460	0.639	0.439	0.46	0.314	1.34	0.488	0.141	0.0496	0.443	0.384	0.155	0.0868	0.326	0.347	0.155	0.105	0.667
NCI-H3122	0.4	0.469	0.352	0.466	0.998	0.897	0.353	0.298	0.608	0.662	0.312	0.256	0.51	0.542	0.299	0.216	0.377
NCI-H2126	0.887	0.905	0.754	0.934	0.948	0.583	0.337	0.318	0.504	0.354	0.305	0.306	0.808	0.374	0.329	0.254	0.895
NCI-H596	0.877	0.939	0.946	1	1.14	0.794	0.694	0.597	0.47	0.375	0.365	0.365	0.66	0.694	0.57	0.491	0.913
